Experimental data published in US20130131062A1, “PYRIDAZINONES AND FURAN-CONTAINING COMPOUNDS” (priority 2006, published 2013).

Assays:
H1650 = assay: Non Small Cell Lung Cancer Proliferation Assay (Alamar Blue); assay type: cell-based, human; details: Homo sapiens, NCI-H1650, dose response 10 μM to 5 nM
Procedure: (§1) Non Small Cell Lung Cancer cell lines are grown and maintained in Corning 175 cm2 flasks in RPMI 1640 media supplemented with 10% FBS, 1% antibiotic solution, 1% additional glutamine and pyruvate. These cells have a doubling time of 1-2 days. All cell types are adherent and grow in colonies. The cells should be kept at a density between 50,000 cells/mL-500,000 cells/mL to provide for optimum growth and adequate nutrition. The cell line should be maintained at 37° C. in a humidified atmosphere with 5% CO2 in a sterile cell culture incubator.
(§2) To perform the assay, the Non Small Cell Lung Cancer lines are diluted in media and plated into 384 well microplates at a final density of 250 cells in 45 μL. To ensure consistency and minimal pipetting error, the cells are plated using the Multidrop 384 with the following settings: Rocker Switch set at 384, Volume 45 and Column 24.
(§3) Low Controls for this assay are made by treating Non Small Cell Lung Cancer cells with 5 ul of staurosporine at 250 uM in 10% DMSO and 1% SDS. [Final concentration in this assay is 25 uM staurosporine in 1% DMSO and 0.1% SDS.]
(§4) High Controls for this assay are made by treating Non Small Cell Lung Cancer cells with 5 ul of 10% DMSO. [Final concentration in this assay is 1% DMSO].
(§5) The remaining wells of the 384 microplate may be treated with different compounds depending on the study. Important Note: All compounds for testing in this assay should be done at the final concentration of 1% DMSO.
(§6) After addition, the cells are placed in cell culture incubator at 37° C. for 48 hours for complete treatment.
(§7) After drug treatment, cytotoxicity is measured by Alamar Blue reduction. 5 μL of Alamar Blue is added to the 384 microplates using the Flexdrop.
(§8) The cells are incubated for 48 hours at 37° C. to complete the Alamar Blue reduction.
(§9) The final step in the assay is to measure the amount of Alamar Blue reduction. […] The Alamar Blue fluorescence is measured at an excitation of 530 nm and emission of 590 nm.
(§10) For the NSCLC project, the cell based assay was screened against a small molecule library of approximately 200,000 compounds. The compound library is stored in our automated robotic freezer (Biophile) at −20° C. in 100% DMSO. Compound freeze and thaw cycles are kept to a minimum. Compounds for use are diluted into the appropriate concentration and plated into 384 well microplates using our custom built low volume 384-well head tool (TPS 384, Apricot Designs Inc., CA, USA). This assay was performed on a fully automated linear track robotic platform (CRS F3 Robot System, Thermo Electron Corp., Ontario, Canada) utilizing several integrated peripherals for plate handling, liquid dispensing, and readout detection. First, non-small cell lung cancer cell lines are dispensed into 384 well microplates (Corning #3712 Tissue Culture Treated Plate, Corning, N.Y., USA) with 5 μL of test compounds at 100 uM in 10% DMSO for screening studies or 1 mM in 10% DMSO to 50 nM in 10% DMSO for dose response studies. The microplates are then placed at 37° C. for 48 hours to complete treatment of cells with compounds. Next, 5 ul of alamar blue was added using a liquid dispenser (FlexDrop Precision Dispenser, Perkin Elmer, Mass., USA) and incubated for 48 hours at 37° C. The alamar blue prompt fluorescence was measured on Victor V (Victor^3 V, Perkin Elmer, Mass., USA) and output data files were loaded into ORIS (Oncology Research Informatics System, MSKCC, NY, USA), a screening data acquisition and analysis platform.

H1975 = assay: as above; assay type: cell-based, human; details: Homo sapiens, NCI-H1975, dose response 10 μM to 5 nM
Procedure: as §1, §2, §3, §4, §5, §6, §7, §8, §9, §10

H2030 = assay: as above; assay type: cell-based, human; details: Homo sapiens, NCI-H2030, dose response 10 μM to 5 nM
Procedure: (§11) These cells have a doubling time of 1-2 days. All cell types are adherent and grow in colonies. The cells should be kept at a density between 50,000 cells/mL-500,000 cells/mL to provide for optimum growth and adequate nutrition. The cell line should be maintained at 37° C. in a humidified atmosphere with 5% CO2 in a sterile cell culture incubator.
(§12) To perform the assay, the Non Small Cell Lung Cancer lines are diluted in media and plated into 384 well microplates at a final density of 250 cells in 45 μL.
as §4
(§13) Important Note: All compounds for testing in this assay should be done at the final concentration of 1% DMSO.
as §6
(§14) After drug treatment, cytotoxicity is measured by Alamar Blue reduction.
as §8, §9
as §10, with “Compounds for use are diluted into the appropriate concentration and plated into 384 well microplates using our custom built low volume 384-well head tool (TPS 384, Apricot Designs Inc., CA, USA).” left out, “First, non-small cell lung cancer cell lines are dispensed into 384 well microplates (Corning #3712 Tissue Culture Treated Plate, Corning, N.Y., USA) with 5 μL of test compounds at 100 uM in 10% DMSO for screening studies or 1 mM in 10% DMSO to 50 nM in 10% DMSO for dose response studies.” left out

H3255 = assay: as above; assay type: cell-based, human; details: Homo sapiens, NCI-H3255, dose response 10 μM to 5 nM
Procedure: as §11, §12, §4, §13, §6, §14, §8, §9
as §10, with “Compounds for use are diluted into the appropriate concentration and plated into 384 well microplates using our custom built low volume 384-well head tool (TPS 384, Apricot Designs Inc., CA, USA).” left out, “First, non-small cell lung cancer cell lines are dispensed into 384 well microplates (Corning #3712 Tissue Culture Treated Plate, Corning, N.Y., USA) with 5 μL of test compounds at 100 uM in 10% DMSO for screening studies or 1 mM in 10% DMSO to 50 nM in 10% DMSO for dose response studies.” left out

in vitro = details: human
Procedure: NHBE (normal human bronchiolar epithelial cells) are primary cells obtained from donor lungs and commercially available from Cambrex. The HPLID (human peripheral lung epithelial) cell line has been immortalized with the SV40 large T-antigen. WI-38: human lung fibroblast cell line. HPLID, NHBE and WI-38 cells will serve as controls in the chemical screens. WT: wildtype; WT*: over-expressed wildtype.
Compounds were tested in dose response studies from 10 μM to 5 nM against several non small cell lung cancer lines: H358, H827, H1118, H1650, H1734, H1975, H2030, and H3255, and were also studied in a 72 hour cytotoxicity assay against the NHBE and WI-38 cell lines.

H827 = assay: Non Small Cell Lung Cancer Proliferation Assay (Alamar Blue), dose response; details: Homo sapiens, read-out: H827 Dose Response (uM)
Procedure: (§15) This assay was performed on a fully automated linear track robotic platform (CRS F3 Robot System, Thermo Electron Corp., Ontario, Canada) utilizing several integrated peripherals for plate handling, liquid dispensing, and readout detection. […] The microplates are then placed at 37° C. for 48 hours to complete treatment of cells with compounds. Next, 5 ul of alamar blue was added using a liquid dispenser (FlexDrop Precision Dispenser, Perkin Elmer, Mass., USA) and incubated for 48 hours at 37° C. The alamar blue prompt fluorescence was measured on Victor V (Victor^3 V, Perkin Elmer, Mass., USA) and output data files were loaded into ORIS (Oncology Research Informatics System, MSKCC, NY, USA), a screening data acquisition and analysis platform. […]

H1118 = assay: as above; details: Homo sapiens, read-out: H1118 Dose Response (uM)
Procedure: as §15

H1734 = assay: as above; details: Homo sapiens, NCI-H1734, read-out: H1734 Dose Response (uM)
Procedure: as §15

`Cc1ccccc1-n1ncc(Cl)c(Cl)c1=O` [compound 257017] gave an IC50 (H1650) of 2.74 µM, an IC50 (H1975) of 0.47 µM and an IC50 (H2030) of 1.08 µM. For the same compound, the IC50 (H3255) was 2.95 µM, the IC50 at 72 h (in vitro) was 7.52 µM and the IC50 at 72 h (in vitro; NHBE CytoTox (uM)) was 5.17 µM. It also gave an IC50 (H827) of 0.71 µM, an IC50 (H1118) of 0.49 µM and an IC50 (H1734) of 3.2 µM.
